Source: US20100061982A1, “3-SUBSTITUTED-1H-INDOLE, 3-SUBSTITUTED-1H-PYRROLO[2,3-B]PYRIDINE AND 3-SUBSTITUTED-1H-PYRROLO[3,2-B]PYRIDINE COMPOUNDS, THEIR USE AS MTOR KINASE AND PI3 KINASE INHIBITORS, AND THEIR SYNTHESES” (priority 2008, published 2010)
Converted amounts (≈) assume the structure as drawn. Read-outs that look alike come from different tables or passages of the source.

What was measured:
[1] = CACO2 permeability a-b/b-a; type: in vitro ADME; conditions: human, Caco-2; for Papp A→B: a − b (first value of cell), read-out: CACO2 Pe a − b; for Papp B→A: b − a (second value of cell), read-out: CACO2 Pe b − a
[2] = Microsome Stability (15 min), human; type: in vitro ADME; conditions: microsomes
[3] = PAMPA permeability pH 7.4
[4] = Microsome Stability (15 min), rat; type: in vitro ADME; conditions: microsomes
[5] = Buffer Stability (37° C.)
[6] = Microsome Stability (15 min), nude mouse; type: in vitro ADME; conditions: microsomes
[7] = Solubility pH 7.4; conditions: pH 7.4, aqueous buffer
[8] = Plasma Stability (37° C.), rat
[9] = In vivo blood/plasma and tumor levels of prodrug and metabolites after 50 mg, kg po; conditions: for plasma prodrug, Dosed @ 50 mg, kg po (precursor phenolic compound dosed) / plasma prodrug concentration / tumor prodrug concentration: 50 mg
[10] = Plasma Stability (37° C.), nude mouse
[11] = target: PI3K alpha (Homo sapiens, UniProt P42336); assay: PI3K-alpha Fluorescence Polarization Assay; type: biochemical
[12] = Phase I (NADPH), read-out: Microsome Stability (15 min) T ½ Phase I human
[13] = value after the slash in Table VIc, read-out: Microsome Stability (15 min) T ½ human, second value of cell
[14] = Phase I (NADPH), read-out: Microsome Stability (15 min) T ½ Phase I rat
[15] = nude, mouse, Phase I (NADPH), read-out: Microsome Stability (15 min) T ½ Phase I nude mouse
[16] = Phase I (NADPH), read-out: Microsome Stability (15 min) T ½ Phase I nude mouse

Sequence of PI3K alpha (P42336 whole entry, species assumed): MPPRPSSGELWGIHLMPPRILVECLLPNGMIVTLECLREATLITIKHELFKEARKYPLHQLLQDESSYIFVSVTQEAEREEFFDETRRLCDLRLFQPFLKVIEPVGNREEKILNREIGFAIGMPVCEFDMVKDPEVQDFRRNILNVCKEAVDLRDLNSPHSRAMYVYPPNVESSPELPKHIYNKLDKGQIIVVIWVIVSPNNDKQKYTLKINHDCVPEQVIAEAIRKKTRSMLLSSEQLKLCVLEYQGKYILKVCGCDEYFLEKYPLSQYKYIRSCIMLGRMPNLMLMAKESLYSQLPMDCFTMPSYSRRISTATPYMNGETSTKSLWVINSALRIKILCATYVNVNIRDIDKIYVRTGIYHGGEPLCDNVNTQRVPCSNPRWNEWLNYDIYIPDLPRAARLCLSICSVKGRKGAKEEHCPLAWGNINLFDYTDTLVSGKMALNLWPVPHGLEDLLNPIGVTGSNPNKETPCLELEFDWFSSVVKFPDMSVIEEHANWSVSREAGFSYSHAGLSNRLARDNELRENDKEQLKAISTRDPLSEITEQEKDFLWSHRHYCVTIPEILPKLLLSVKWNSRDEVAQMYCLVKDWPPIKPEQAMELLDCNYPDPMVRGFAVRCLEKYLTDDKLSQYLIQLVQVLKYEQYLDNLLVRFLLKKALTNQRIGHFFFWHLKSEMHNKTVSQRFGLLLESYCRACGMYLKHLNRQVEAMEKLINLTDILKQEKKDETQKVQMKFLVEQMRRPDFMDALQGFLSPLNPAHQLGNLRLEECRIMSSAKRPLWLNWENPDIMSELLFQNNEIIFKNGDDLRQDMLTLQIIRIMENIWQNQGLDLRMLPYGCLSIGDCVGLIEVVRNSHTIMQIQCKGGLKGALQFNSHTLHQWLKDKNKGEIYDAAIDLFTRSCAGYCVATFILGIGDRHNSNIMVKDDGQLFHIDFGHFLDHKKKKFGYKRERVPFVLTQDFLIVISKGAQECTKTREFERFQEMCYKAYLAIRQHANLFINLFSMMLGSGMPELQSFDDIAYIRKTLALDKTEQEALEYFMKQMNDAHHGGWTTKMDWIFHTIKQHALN
Sequence of PI3K alpha (P27986 whole entry partner, species assumed): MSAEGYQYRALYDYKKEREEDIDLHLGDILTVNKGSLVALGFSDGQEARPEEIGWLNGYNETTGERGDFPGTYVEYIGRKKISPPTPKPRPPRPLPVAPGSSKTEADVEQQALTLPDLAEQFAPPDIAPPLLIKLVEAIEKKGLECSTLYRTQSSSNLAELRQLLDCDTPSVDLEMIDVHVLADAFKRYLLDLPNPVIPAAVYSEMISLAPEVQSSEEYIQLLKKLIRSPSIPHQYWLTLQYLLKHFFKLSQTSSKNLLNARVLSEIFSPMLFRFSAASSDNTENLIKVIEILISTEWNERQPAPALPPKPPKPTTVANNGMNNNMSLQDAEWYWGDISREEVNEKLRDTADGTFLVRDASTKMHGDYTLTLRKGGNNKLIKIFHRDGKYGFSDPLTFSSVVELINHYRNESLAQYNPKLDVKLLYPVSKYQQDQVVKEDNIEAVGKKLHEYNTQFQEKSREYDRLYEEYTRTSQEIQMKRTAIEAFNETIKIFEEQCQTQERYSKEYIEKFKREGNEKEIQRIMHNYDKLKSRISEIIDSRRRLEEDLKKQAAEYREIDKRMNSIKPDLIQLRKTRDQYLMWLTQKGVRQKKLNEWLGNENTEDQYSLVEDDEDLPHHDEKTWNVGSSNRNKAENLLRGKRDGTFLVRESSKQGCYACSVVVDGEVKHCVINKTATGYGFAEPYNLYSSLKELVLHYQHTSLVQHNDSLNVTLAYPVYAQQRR

| SMILES | Papp A→B [1] | Papp B→A [1] | half-life [2, 12] | PAMPA Pe [3] | half-life [4, 14] | Buffer Stability (37° C.) % Remaining (at 16-23 hours) SGF [5] | Buffer Stability (37° C.) % Remaining (at 16-23 hours) SIF [5] | Buffer Stability (37° C.) % Remaining (at 16-23 hours) pH 1 [5] | Buffer Stability (37° C.) % Remaining (at 16-23 hours) pH 4.5 [5] | Buffer Stability (37° C.) % Remaining (at 16-23 hours) pH 6.6 [5] | Buffer Stability (37° C.) % Remaining (at 16-23 hours) pH 7.4 [5] | Buffer Stability (37° C.) % Remaining (at 16-23 hours) pH 9 [5] | half-life [6, 15] | solubility [7] | Plasma Stability (37° C.) % Remaining (3-3.5 hours) rat [8] | Plasma Stability (37° C.) % Remaining (3-3.5 hours) nude mouse [10] | IC50 ([11]; read-out: PI3K alpha Mean IC50) | half-life [6, 16] | IC50 [11] | plasma prodrug concentration ([9]; 0.5 h) | further results |
| --- | --- | --- | --- | --- | --- | --- | --- | --- | --- | --- | --- | --- | --- | --- | --- | --- | --- | --- | --- | --- | --- |
| COc1ccc2c(c1)c(/C=C1\Oc3cc(O)cc(O)c3C1=O)cn2CCCN(C)C [(2Z)-2-({1-[3-(dimethylamino)propyl]-5-methoxy-1H-indol-3-yl}methylene)-4,6-dihydroxy-1-benzofuran-3(2H)-one] | 3.9 ×10⁻⁶ cm/s | 27 ×10⁻⁶ cm/s | > 30 min | 0 10e−6 cm/s | 6 min | 95% | 57% | 99% | 93% | 83% | 82% | 94% | 15 min | 33 µg/mL (≈ 80.8 µM) | 77% | 78% |  |  |  |  | half-life [2, 13]: 28 min; plasma prodrug, Dosed @ 50 mg, kg po (precursor phenolic compound dosed) ([9]; 1 h conc.): 23; plasma prodrug, Dosed @ 50 mg, kg po (precursor phenolic compound dosed) ([9]; 4 h conc.): 7 |
| COc1ccc2[nH]c(-c3ccccc3)c(/C=C3\Oc4cc(O)ccc4C3=O)c2c1 [(2Z)-6-hydroxy-2-[(5-methoxy-2-phenyl-1H-indol-3-yl)methylene]-1-benzofuran-3(2H)-one] | 0.03 ×10⁻⁶ cm/s | 0.11 ×10⁻⁶ cm/s | 15 min | 0.18 10e−6 cm/s | 18 min | 93% | 97% | 97% | 98% | 98% | 98% | 99% | 19 min |  | 111% | 83% | 0.0013 µM |  |  |  | half-life [2, 13]: 3 min; half-life ([4]; value after the slash in Table VIc, read-out: Microsome Stability (15 min) T ½ rat, second value of cell): 4 min; half-life ([6]; nude, mouse, value after the slash in Table VIc, read-out: Microsome Stability (15 min) T ½ nude mouse, second value of cell): 4 min; plasma prodrug, Dosed @ 50 mg, kg po (precursor phenolic compound dosed) ([9]; first value, time not stated in Table VIIb): bql, bql; plasma prodrug, Dosed @ 50 mg, kg po (precursor phenolic compound dosed) ([9]; second value, time not stated in Table VIIb): bql, bql |
| COc1ccc2c(c1)c(/C=C1\Oc3cc(OC(=O)N(C)c4ccccc4)cc(OC(=O)N(C)c4ccccc4)c3C1=O)cn2CCCN(C)C [Example 2, (2Z)-2-({1-[3-(dimethylamino)propyl]-5-methoxy-1H-indol-3-yl}methylene)-3-oxo-2,3-dihydro-1-benzofuran-4,6-diyl bis[methyl(phenyl)carbamate]] | 0.04 ×10⁻⁶ cm/s | 0.08 ×10⁻⁶ cm/s | 24 min | 0 10e−6 cm/s | > 30 min | 100% | 100% | 100% | 100% | 100% | 100% | 100% |  |  | 22% | 10% |  | > 30 min | > 10 µM | 486 ng, ml | plasma prodrug concentration ([9]; 2 h): 757 ng, ml |
| COc1ccc2c(c1)c(/C=C1\Oc3cc(OC(=O)N(C(C)C)C(C)C)cc(OC(=O)N(C(C)C)C(C)C)c3C1=O)cn2CCCN(C)C [Example 4, (2Z)-2-({1-[3-(dimethylamino)propyl]-5-methoxy-1H-indol-3-yl}methylene)-3-oxo-2,3-dihydro-1-benzofuran-4,6-diyl bis(diisopropylcarbamate)] | 0.16 ×10⁻⁶ cm/s | 0.06 ×10⁻⁶ cm/s | 6 min | 0 10e−6 cm/s | > 30 min | 100% | 100% | 100% | 100% |  | 100% | 100% |  |  | 65% | 64% |  | 21 min | > 10 µM | 411 ng, ml | plasma prodrug concentration ([9]; 2 h): 435 ng, ml |
| COc1ccc2c(c1)c(/C=C1\Oc3cc(OC(=O)OC(C)C)cc(OC(=O)OC(C)C)c3C1=O)cn2CCCN(C)C [Example 5, (2Z)-2-({1-[3-(dimethylamino)propyl]-5-methoxy-1H-indol-3-yl}methylene)-3-oxo-2,3-dihydro-1-benzofuran-4,6-diyl diisopropyl biscarbonate] |  |  | 3 min | 0 10e−6 cm/s | < 1 min | 94% | 0% | 95% | 82% | 63% | 14% | 0% | 3 min | 3 µg/mL (≈ 5.17 µM) | 0% | 16% | > 9.75 µM |  |  |  |  |
| COc1ccc2c(c1)c(/C=C1\Oc3cc(OC(=O)N(C)C)cc(OC(=O)N(C)C)c3C1=O)cn2CCCN(C)C [Example 8, (2Z)-2-({1-[3-(dimethylamino)propyl]-5-methoxy-1H-indol-3-yl}methylene)-3-oxo-2,3-dihydro-1-benzofuran-4,6-diyl bis(dimethylcarbamate)] | 4.82 ×10⁻⁶ cm/s | 7.22 ×10⁻⁶ cm/s | 15 min | 4.53 10e−6 cm/s | > 30 min | 100% | 100% | 100% | 100% | 100% | 100% | 91% |  | 28 µg/mL (≈ 50.9 µM) | 50% | 7% |  | 23 min | > 10 µM | 3122, ng, ml | tumor prodrug concentration ([9]; 0.5 h): 2170, ng, ml; plasma prodrug concentration ([9]; 2 h): 3876, ng, ml; tumor prodrug concentration ([9]; 2 h): 4820, ng, ml; tumor prodrug concentration ([9]; 6 h): 1482, ng, ml; plasma prodrug concentration ([9]; 6 h (third value)): 2170, ng, ml; plasma prodrug concentration ([9]; 10 h): 497 ng, ml; tumor prodrug concentration ([9]; 10 h): 556 ng, ml; plasma prodrug concentration ([9]; 24 h): 3 ng, ml; tumor prodrug concentration ([9]; 24 h): bql; blood 4-OH, 6-OR mono prodrug concentration (metabolite) ([9]; prodrug 50 mg, 24 h): bql; blood 6-OH, 4-OR mono prodrug concentration (metabolite) ([9]; prodrug 50 mg, 24 h): bql; tumor 4-OH, 6-OR mono prodrug concentration (metabolite) ([9]; prodrug 50 mg, 24 h): bql; tumor 6-OH, 4-OR mono prodrug concentration (metabolite) ([9]; prodrug 50 mg, 24 h): bql; blood precursor phenolic cpd concentration (metabolite) ([9]; prodrug 50 mg, all time points (0.5, 2, 6, 10, 24 h)): bql at all |
| COc1ccc2c(c1)c(/C=C1\Oc3cc(OC(=O)CC(C)C)cc(OC(=O)CC(C)C)c3C1=O)cn2CCCN(C)C [Example 9, (2Z)-2-({1-[3-(dimethylamino)propyl]-5-methoxy-1H-indol-3-yl}methylene)-3-oxo-2,3-dihydro-1-benzofuran-4,6-diyl bis(3-methylbutanoate)] |  |  | 6 min | 0 10e−6 cm/s | 4 min | 77% | 0% | 73% | 66% | 46% | 0% | 0% | 6 min | 1 µg/mL (≈ 1.73 µM) | 0% | 8% | > 10 µM |  |  |  |  |
